Source: PubChem BioAssay (NCI)
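A five-concentration, 48-hour dose response in 96-well plates underlies each endpoint, interpolated linearly between surrounding concentrations. GI50 = concentration required for 50% inhibition of growth. TGI: total growth inhibition.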

Key:
Test in all cases: NCI-60 cell line screen, 48 h; in the data active = GI50 below about 0.43 µM; inactive = the rest
[1] = tested on: 786-0 renal
[2] = tested on: A498 renal
[3] = tested on: A549 NSCLC
[4] = tested on: ACHN renal
[5] = tested on: BT-549 breast
[6] = tested on: CAKI-1 renal
[7] = tested on: CCRF-CEM leukemia
[8] = tested on: COLO 205 colon
[9] = tested on: DU-145 prostate
[10] = tested on: EKVX NSCLC
[11] = tested on: HCC-2998 colon
[12] = tested on: HCT-116 colon
[13] = tested on: HCT-15 colon
[14] = tested on: HL-60(TB) leukemia
[15] = tested on: HOP-62 NSCLC
[16] = tested on: HOP-92 NSCLC
[17] = tested on: HS 578T breast
[18] = tested on: HT29 colon
[19] = tested on: IGROV1 ovarian
[20] = tested on: K-562 leukemia
[21] = tested on: KM12 colon
[22] = tested on: LOX IMVI melanoma
[23] = tested on: M14 melanoma
[24] = tested on: MALME-3M melanoma
[25] = tested on: MCF7 breast
[26] = tested on: MDA-MB-231 breast
[27] = tested on: MDA-MB-435
[28] = tested on: MOLT-4 leukemia
[29] = tested on: NCI-H226 lung
[30] = tested on: NCI-H23 lung
[31] = tested on: NCI-H460 lung
[32] = tested on: NCI-H522 lung
[33] = tested on: NCI/ADR-RES ovarian
[34] = tested on: OVCAR-3 ovarian
[35] = tested on: OVCAR-4 ovarian
[36] = tested on: OVCAR-5 ovarian
[37] = tested on: OVCAR-8 ovarian
[38] = tested on: PC-3 prostate
[39] = tested on: RPMI-8226 leukemia
[40] = tested on: RXF 393 renal
[41] = tested on: SF-268 CNS
[42] = tested on: SF-295 CNS
[43] = tested on: SF-539 CNS
[44] = tested on: SK-MEL-2 melanoma
[45] = tested on: SK-MEL-28 melanoma
[46] = tested on: SK-MEL-5 melanoma
[47] = tested on: SK-OV-3 ovarian
[48] = tested on: SN12C renal
[49] = tested on: SNB-19 CNS
[50] = tested on: SNB-75 CNS
[51] = tested on: SR leukemia
[52] = tested on: SW-620 colon
[53] = tested on: T-47D breast
[54] = tested on: TK-10 renal
[55] = tested on: U251 CNS
[56] = tested on: UACC-257 melanoma
[57] = tested on: UACC-62 melanoma
[58] = tested on: UO-31 renal

O=C(CN1CCN(c2cc3c(cc2F)c(=O)c(C(=O)N/N=C/c2ccccc2O)cn3C2CC2)CC1)N/N=C\c1ccccc1O
active: GI50 [4] 0.351 µM | GI50 [7] 0.167 µM | GI50 [8] 0.371 µM | GI50 [13] 0.33 µM | GI50 [14] 0.36 µM | GI50 [15] 0.408 µM | GI50 [20] 0.389 µM | GI50 [22] 0.232 µM | GI50 [23] 0.384 µM | GI50 [25] 0.398 µM | GI50 [28] 0.267 µM | GI50 [31] 0.367 µM | GI50 [32] 0.405 µM | GI50 [34] 0.269 µM | GI50 [35] 0.204 µM | GI50 [37] 0.417 µM | GI50 [51] 0.304 µM | GI50 [55] 0.367 µM | GI50 [58] 0.359 µM
12.4 µM: TGI [57]
> 64 µM: TGI [43]
> 100 µM: TGI [1] | TGI [2] | TGI [3] | TGI [4] | TGI [5] | TGI [6] | TGI [7] | TGI [8] | TGI [9] | TGI [10] | TGI [11] | TGI [12] | TGI [13] | TGI [15] | TGI [16] | TGI [17] | TGI [18] | TGI [19] | TGI [20] | TGI [21] | TGI [25] | TGI [27] | TGI [28] | TGI [29] | TGI [30] | TGI [32] | TGI [33] | TGI [34] | TGI [35] | TGI [36] | TGI [37] | TGI [38] | TGI [39] | TGI [40] | TGI [41] | TGI [42] | TGI [44] | TGI [45] | TGI [47] | TGI [48] | TGI [49] | TGI [50] | TGI [51] | TGI [52] | TGI [53] | TGI [54] | TGI [55] | TGI [56] | TGI [58]
> 63.4 µM: TGI [24]
> 75.7 µM: TGI [22]
5.02 µM: TGI [23]
> 69.3 µM: TGI [26]
2.95 µM: TGI [46]
inactive: GI50 [1] 1.12 µM | GI50 [2] 6.03 µM | GI50 [3] 0.569 µM | GI50 [5] 1.51 µM | GI50 [6] 1.1 µM | GI50 [9] 0.716 µM | GI50 [10] 1.11 µM | GI50 [11] 0.615 µM | GI50 [12] 0.443 µM | GI50 [16] 2.15 µM | GI50 [17] 8.57 µM | GI50 [18] 1.01 µM | GI50 [19] 0.787 µM | GI50 [21] 0.462 µM | GI50 [24] 0.627 µM | GI50 [26] 0.533 µM | GI50 [27] 0.99 µM | GI50 [29] 3.71 µM | GI50 [30] 0.801 µM | GI50 [33] 0.91 µM | GI50 [36] 1.62 µM | GI50 [38] 0.531 µM | GI50 [39] 0.557 µM | GI50 [40] 1.32 µM | GI50 [41] 0.474 µM | GI50 [42] 0.931 µM | GI50 [43] 0.829 µM | GI50 [44] 1.66 µM | GI50 [45] 0.657 µM | GI50 [46] 0.876 µM | GI50 [47] 0.763 µM | GI50 [48] 0.694 µM | GI50 [49] 1.18 µM | GI50 [50] 1.11 µM | GI50 [52] 0.475 µM | GI50 [53] 0.796 µM | GI50 [54] 0.77 µM | GI50 [56] 0.912 µM | GI50 [57] 0.758 µM
> 48.7 µM: TGI [31]

COC(=O)Nc1nc2ccc(S(=O)c3ccccc3)cc2[nH]1 (configuration not stated)
26.7 µM: TGI [40]
54.1 µM: TGI [18]
12.4 µM: TGI [47]
> 100 µM: TGI [1] | TGI [2] | TGI [3] | TGI [4] | TGI [5] | TGI [6] | TGI [7] | TGI [9] | TGI [10] | TGI [11] | TGI [12] | TGI [13] | TGI [15] | TGI [16] | TGI [17] | TGI [19] | TGI [21] | TGI [22] | TGI [23] | TGI [24] | TGI [25] | TGI [26] | TGI [28] | TGI [29] | TGI [30] | TGI [31] | TGI [33] | TGI [34] | TGI [35] | TGI [36] | TGI [37] | TGI [38] | TGI [39] | TGI [41] | TGI [44] | TGI [45] | TGI [46] | TGI [48] | TGI [49] | TGI [51] | TGI [52] | TGI [53] | TGI [54] | TGI [55] | TGI [56] | TGI [57] | TGI [58]
inactive: GI50 [1] 5.2 µM | GI50 [2] 15.5 µM | GI50 [3] 5.48 µM | GI50 [4] 7.59 µM | GI50 [5] 3.98 µM | GI50 [6] 4.99 µM | GI50 [7] 5.16 µM | GI50 [8] 2.51 µM | GI50 [9] 31 µM | GI50 [10] 35 µM | GI50 [11] 10.5 µM | GI50 [12] 3.5 µM | GI50 [13] 4.58 µM | GI50 [14] 2.44 µM | GI50 [15] 3.64 µM | GI50 [16] 9.88 µM | GI50 [17] 19.6 µM | GI50 [18] 3.46 µM | GI50 [19] 7.51 µM | GI50 [21] 4.48 µM | GI50 [22] 5.96 µM | GI50 [23] 3.11 µM | GI50 [24] 5.21 µM | GI50 [25] 3.12 µM | GI50 [26] 7.45 µM | GI50 [27] 1.26 µM | GI50 [28] 5.86 µM | GI50 [29] 4.06 µM | GI50 [30] 8.79 µM | GI50 [31] 4.17 µM | GI50 [32] 2.79 µM | GI50 [33] 3.81 µM | GI50 [34] 7.39 µM | GI50 [35] 7.73 µM | GI50 [36] 9.12 µM | GI50 [37] 14.8 µM | GI50 [38] 6.75 µM | GI50 [39] 5.11 µM | GI50 [40] 3.28 µM | GI50 [41] > 100 µM | GI50 [43] 4.64 µM | GI50 [44] 3.29 µM | GI50 [45] 3.78 µM | GI50 [46] 2.83 µM | GI50 [47] 3.23 µM | GI50 [48] 6.98 µM | GI50 [49] 6.12 µM | GI50 [50] 1.75 µM | GI50 [51] 2.25 µM | GI50 [52] 3.63 µM | GI50 [53] 4.38 µM | GI50 [54] 12.4 µM | GI50 [55] 4.45 µM | GI50 [56] > 100 µM | GI50 [57] 4.44 µM | GI50 [58] 8 µM
3.94 µM: TGI [27]
6.5 µM: TGI [14]
5.75 µM: TGI [50]
7.78 µM: TGI [8]
40.2 µM: TGI [32]
58.5 µM: TGI [43]
